Results published in PubChem BioAssay (NCI).
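Dose response: 5 concentrations. Exposure: 48 h. Format: 96-well plates. Endpoint: linear interpolation; highest concentration if not reached. TGI denotes the concentration required for complete inhibition of growth.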

Columns and labels:
Test in all cases: NCI tumour cell line growth inhibition, 48 h
[1] = test system: HL-60(TB) leukemia
[2] = test system: TK-10 renal
[3] = test system: HCC-2998 colon
[4] = test system: HCT-15 colon
[5] = test system: MALME-3M melanoma
[6] = test system: SK-OV-3 ovarian
[7] = test system: HCT-116 colon
[8] = test system: MCF7 breast
[9] = test system: A498 renal
[10] = test system: HOP-92 NSCLC
[11] = test system: K-562 leukemia
[12] = test system: CAKI-1 renal
[13] = test system: LOX IMVI melanoma
[14] = test system: 786-0 renal
[15] = test system: KM12 colon
[16] = test system: UO-31 renal
[17] = test system: COLO 205 colon
[18] = test system: SF-539 CNS
[19] = test system: RXF 393 renal
[20] = test system: SF-295 CNS
[21] = test system: SF-268 CNS
[22] = test system: U251 CNS
[23] = test system: MDA-MB-231 breast
[24] = test system: NCI-H226 lung
[25] = test system: UACC-257 melanoma
[26] = test system: OVCAR-5 ovarian
[27] = test system: MDA-N
[28] = test system: OVCAR-8 ovarian
[29] = test system: PC-3 prostate
[30] = test system: SN12C renal
[31] = test system: SK-MEL-5 melanoma
[32] = test system: M14 melanoma
[33] = test system: EKVX NSCLC
[34] = test system: NCI-H460 lung
[35] = test system: SNB-19 CNS
[36] = test system: SNB-75 CNS
[37] = test system: CCRF-CEM leukemia
[38] = test system: UACC-62 melanoma
[39] = test system: OVCAR-4 ovarian
[40] = test system: IGROV1 ovarian
[41] = test system: NCI/ADR-RES ovarian
[42] = test system: T-47D breast
[43] = test system: NCI-H23 lung
[44] = test system: DU-145 prostate
[45] = test system: SR leukemia
[46] = test system: HT29 colon
[47] = test system: SK-MEL-2 melanoma
[48] = test system: A549 NSCLC
[49] = test system: ACHN renal
[50] = test system: HOP-62 NSCLC
[51] = test system: SK-MEL-28 melanoma
[52] = test system: SW-620 colon
[53] = test system: RPMI-8226 leukemia
[54] = test system: HS 578T breast
[55] = test system: OVCAR-3 ovarian
[56] = test system: NCI-H522 lung
[57] = test system: MDA-MB-435
[58] = test system: MOLT-4 leukemia

## O=C1c2ccccc2C2=Cc3ccccc3C(O)N12 (stereo not given)
[1]
  TGI: 64.1 µM
[2]
  TGI: > 100 µM
[3]
  TGI: > 100 µM
[4]
  TGI: > 100 µM
[5]
  TGI: > 100 µM
[6]
  TGI: > 100 µM
[7]
  TGI: > 100 µM
[8]
  TGI: > 100 µM
[9]
  TGI: > 100 µM
[10]
  TGI: > 100 µM
[11]
  TGI: > 100 µM
[12]
  TGI: 43.2 µM
[13]
  TGI: > 100 µM
[14]
  TGI: > 100 µM
[15]
  TGI: > 100 µM
[16]
  TGI: 35 µM
[17]
  TGI: > 100 µM
[18]
  TGI: > 100 µM
[19]
  TGI: 83.8 µM
[20]
  TGI: > 100 µM
[21]
  TGI: > 100 µM
[22]
  TGI: > 100 µM
[23]
  TGI: > 100 µM
[24]
  TGI: > 100 µM
[25]
  TGI: > 100 µM
[26]
  TGI: > 100 µM
[27]
  TGI: > 100 µM
[28]
  TGI: > 100 µM
[29]
  TGI: > 100 µM
[30]
  TGI: > 100 µM
[31]
  TGI: > 100 µM
[32]
  TGI: > 100 µM
[33]
  TGI: > 100 µM
[34]
  TGI: > 100 µM
[35]
  TGI: > 100 µM
[36]
  TGI: > 100 µM
[37]
  TGI: > 100 µM
[38]
  TGI: 65.3 µM
[39]
  TGI: > 100 µM
[40]
  TGI: > 100 µM
[41]
  TGI: > 100 µM
[42]
  TGI: > 100 µM
[43]
  TGI: > 100 µM
[44]
  TGI: > 100 µM
[45]
  TGI: 83.5 µM
[46]
  TGI: > 100 µM
[47]
  TGI: > 100 µM
[48]
  TGI: > 100 µM
[49]
  TGI: > 100 µM
[50]
  TGI: > 100 µM
[51]
  TGI: > 100 µM
[52]
  TGI: > 100 µM
[53]
  TGI: > 100 µM
[54]
  TGI: > 100 µM
[55]
  TGI: > 100 µM
[56]
  TGI: 40.8 µM
[57]
  TGI: > 100 µM
[58]
  TGI: 91.9 µM

## CC(=O)CC(O)(C(F)(F)Cl)C(F)(F)Cl
[1]
  TGI: > 10 µM
[2]
  TGI: > 10 µM
[3]
  TGI: > 10 µM
[4]
  TGI: > 10 µM
[5]
  TGI: > 10 µM
[6]
  TGI: > 10 µM
[7]
  TGI: > 10 µM
[8]
  TGI: > 10 µM
[9]
  TGI: > 10 µM
[10]
  TGI: > 10 µM
[11]
  TGI: > 10 µM
[12]
  TGI: > 10 µM
[13]
  TGI: > 10 µM
[14]
  TGI: > 10 µM
[15]
  TGI: > 10 µM
[16]
  TGI: > 10 µM
[17]
  TGI: > 10 µM
[18]
  TGI: > 10 µM
[19]
  TGI: > 10 µM
[20]
  TGI: > 10 µM
[21]
  TGI: > 10 µM
[22]
  TGI: > 10 µM
[23]
  TGI: > 10 µM
[24]
  TGI: > 10 µM
[25]
  TGI: > 10 µM
[27]
  TGI: > 10 µM
[28]
  TGI: > 10 µM
[29]
  TGI: > 10 µM
[30]
  TGI: > 10 µM
[31]
  TGI: > 10 µM
[32]
  TGI: > 10 µM
[33]
  TGI: > 10 µM
[34]
  TGI: > 10 µM
[35]
  TGI: > 10 µM
[36]
  TGI: > 10 µM
[37]
  TGI: > 10 µM
[38]
  TGI: > 10 µM
[39]
  TGI: > 10 µM
[40]
  TGI: > 10 µM
[41]
  TGI: > 10 µM
[42]
  TGI: > 10 µM
[43]
  TGI: > 10 µM
[44]
  TGI: > 10 µM
[45]
  TGI: > 10 µM
[46]
  TGI: > 10 µM
[47]
  TGI: > 10 µM
[48]
  TGI: > 10 µM
[49]
  TGI: > 10 µM
[50]
  TGI: > 10 µM
[51]
  TGI: > 10 µM
[52]
  TGI: > 10 µM
[53]
  TGI: > 10 µM
[54]
  TGI: > 10 µM
[55]
  TGI: > 10 µM
[56]
  TGI: > 10 µM
[57]
  TGI: > 10 µM
[58]
  TGI: > 10 µM
